The source of these data is ChEMBL document CHEMBL5506017, “Brain-Permeable Immunoproteasome-Targeting Macrocyclic Peptide Epoxyketones for Alzheimer's Disease” (J Med Chem, 2024).

Molecules are shown by their SMILES. Calls of active or inactive are those of the source. No cut-off for these calls is given here.

Series [1] can be described thus: Metabolic stability in human liver microsomes assessed as half life at 2 uM measured upto 60 mins by LC-MS/MS analysis. The series is classed as ADME, Microsome. The settings on record: 1 h.
Series [2] is described as follows: Metabolic stability in human liver microsomes assessed as parent compound remaining at 2 uM measured at 60 mins by LC-MS/MS analysis. Type of series: ADME, Microsome. The settings on record: 1 h. On the technique in general: Liver microsomes are a subcellular fraction often used to study metabolism.
A short description of series [3]: Apparent permeability of the compound across basal to apical side in human Caco-2 cells expressing Pgp/BCRP at 10 uM incubated for 120 mins by LC-MS/MS analysis. Type of series: ADME, cell-based. The following applies: caco-2, 2 h. On the technique in general: Caco-2 monolayers are a common model of the intestinal barrier.
Series [4] can be described thus: Apparent permeability of the compound across apical to basolateral side in human Caco-2 cells expressing Pgp/BCRP at 10 uM incubated for 120 mins by LC-MS/MS analysis. Type of series: ADME, cell-based. The settings on record: caco-2, 2 h.
Series [5] can be described thus: Efflux ratio of apparent permeability across basolateral to apical side over apical to basolateral side in human Caco-2 cells expressing Pgp/BCRP at 10 uM incubated for 120 mins by LC-MS/MS analysis. The following applies: caco-2, 2 h. The series is classed as ADME, cell-based.
Series [6] can be described thus: Cytotoxicity against human HMC3 cells assessed as reduction in cell viability incubated for 96 hrs by CellTiter 96 Aqueous One Solution Cell Proliferation Assay. The series is classed as toxicity, cell-based.
A short description of series [7]: Cytotoxicity against human ARPE-19 cells assessed as reduction in cell viability incubated for 96 hrs by CellTiter 96 Aqueous One Solution Cell Proliferation Assay. The series is classed as toxicity, cell-based.
A further series has as its system HMC3. As to the kind of experiment: Cytotoxicity against human HMC3 cells assessed as reduction in cell viability at 30 to 100 uM incubated for 96 hrs by CellTiter 96 Aqueous One Solution Cell Proliferation Assay. The series is classed as toxicity, cell-based. The following applies: hmc3, 96 h, dose 30-100 µM.
In another series the test system is ARPE-19. As to the kind of experiment: Cytotoxicity against human ARPE-19 cells assessed as reduction in cell viability at 30 to 100 uM incubated for 96 hrs by CellTiter 96 Aqueous One Solution Cell Proliferation Assay. The following applies: arpe-19, 96 h, dose 30-100 µM. Type of series: toxicity, cell-based.
Series [8] is described as follows: Mutagenicity in Salmonella typhimurium TA98 at 1 mg/ml incubated for 90 mins in absence of liver S9 fraction by AMES test. Type of series: toxicity. The following applies: salmonella enterica subsp. enterica serovar typhimurium, s9, 1.5 h.
Series [9] in a line: Mutagenicity in Salmonella typhimurium TA98 at 0.01 to 100 uM incubated for 90 mins in absence of liver S9 fraction by AMES test. The series is classed as toxicity. The following applies: salmonella enterica subsp. enterica serovar typhimurium, s9, 1.5 h, dose 0.01-100 µM.
The nature of series [10]: Mutagenicity in Salmonella typhimurium TA98 at 0.01 to 100 uM incubated for 90 mins in presence of liver S9 fraction by AMES test. The series is classed as toxicity, subcellular. The settings on record: salmonella enterica subsp. enterica serovar typhimurium, s9, 1.5 h, dose 0.01-100 µM.
The nature of series [11]: Mutagenicity in Salmonella typhimurium TA100 at 0.01 to 100 uM incubated for 90 mins in absence of liver S9 fraction by AMES test. The series is classed as toxicity. The settings on record: salmonella enterica subsp. enterica serovar typhimurium, s9, 1.5 h, dose 0.01-100 µM.
Series [12] can be described thus: Mutagenicity in Salmonella typhimurium TA100 at 0.01 to 100 uM incubated for 90 mins in presence of liver S9 fraction by AMES test. Type of series: toxicity, subcellular. The settings on record: salmonella enterica subsp. enterica serovar typhimurium, s9, 1.5 h, dose 0.01-100 µM.
The target of series [13] is T1, Proteasome subunit beta type-9 (Homo sapiens, UniProt P28065).
T1 sequence (P28065 whole entry): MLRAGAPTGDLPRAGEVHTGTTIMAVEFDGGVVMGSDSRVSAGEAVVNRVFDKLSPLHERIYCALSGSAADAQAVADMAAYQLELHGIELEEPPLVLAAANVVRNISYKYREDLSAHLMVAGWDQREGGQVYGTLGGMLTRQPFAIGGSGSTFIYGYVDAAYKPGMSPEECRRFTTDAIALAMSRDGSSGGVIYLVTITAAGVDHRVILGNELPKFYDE
As to the kind of experiment: Inhibition of human LMP2 using Ac-PAL-AMC as substrate incubated for 1 hr by fluorescence based SpectraMax M5e plate reader.

Series [14] concerns the target T2, Proteasome subunit beta type-9 (Mus musculus) (UniProt P28076).
T2 sequence (whole entry): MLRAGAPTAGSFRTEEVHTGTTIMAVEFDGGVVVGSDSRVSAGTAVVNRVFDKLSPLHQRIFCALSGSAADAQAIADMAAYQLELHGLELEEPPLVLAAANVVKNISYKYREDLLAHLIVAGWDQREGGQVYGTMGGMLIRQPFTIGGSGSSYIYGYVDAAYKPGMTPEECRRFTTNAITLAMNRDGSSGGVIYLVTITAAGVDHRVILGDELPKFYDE
Put plainly: Covalent inhibition of LMP2 in mouse BV-2 cells assessed as band shift at 0.3 to 3 uM incubated for 24 hrs by Western blot analysis. The series is classed as cell-based. The settings on record: dose 0.3-3 µM. (In general: In western blotting, separated proteins are transferred to a membrane and probed.)

`CC(C)C[C@H](NC(=O)[C@@H]1COCCCCCC(=O)N2CC(F)(F)C[C@H]2C(=O)N1)C(=O)[C@@]1(C)CO1`: in series [1], the t1/2 is reported as 21.6 min. Besides, the Stability in series [2] is 13.5%. The Papp in series [3] is listed as 14.4 10^-6 cm/s; in series [4] it was 29.1 10^-6 cm/s. Besides, the Ratio in [5] was determined as 0.52. Moreover, the IC50 at 96 h in series [6] and in series [7] was more than 100000 nM in each case. Also, the Activity entry is reported as “Non-Toxic” in the series with HMC3, “Non-Toxic” in the series with ARPE-19 and “Toxic” in [8].

With `CC(C)C[C@H](NC(=O)[C@@H]1COCCCCCC(=O)N2CC[C@H]2C(=O)N1)C(=O)[C@@]1(C)CO1`, in [1], the t1/2 is 43 min. Also, in series [2], the Stability was found to be 38.8%. In addition, the results for the Papp in series [3] and in series [4] were 14.8 10^-6 cm/s and 6.8 10^-6 cm/s, respectively. Besides, the Ratio in series [5] is 2.17. Further, the IC50 (commonly the concentration that inhibits the measured activity by half) at 96 h in series [6] was more than 30000 nM; in [7], more than 100000 nM. Also, the Activity result (in the series on HMC3; in the series with ARPE-19; in series [9]; in [10]; in series [11]; in [12]) was “Non-Toxic” each time.

The molecule `C[C@]1(C(=O)[C@H](CC2=CCCC2)NC(=O)[C@@H]2Cc3ccc(cc3)OCCCCCCCC(=O)N3CCC[C@H]3C(=O)N2)CO1` gave an IC50 in series [13] of 220 nM. The Stability result in [2] is “Unstable”. For the same molecule, the Papp in [3] is on record as 1.05 10^-6 cm/s; in series [4] it was 2.44 10^-6 cm/s. Further, in series [5], the Ratio is 0.43.

With `CC(C)C[C@H](NC(=O)[C@@H]1COCCCCCCC(=O)NCC(=O)N2CCC[C@H]2C(=O)N1)C(=O)[C@@]1(C)CO1`, the t1/2 in series [1] amounted to 24.1 min. The Stability in [2] was determined as 17%. The Papp is given as 8.64 10^-6 cm/s in series [3] and 0.39 10^-6 cm/s in series [4]. Besides, the Ratio in series [5] stood at 22.2.

On to `CC(C)C[C@H](NC(=O)[C@@H]1COCCCCCC(=O)NCC(=O)N2CCC[C@H]2C(=O)N1)C(=O)[C@@]1(C)CO1`, for which, in [1], the t1/2 was 55.3 min. Moreover, in series [2], the Stability worked out at 46.4%. The Papp in series [3] is recorded as 7.25 10^-6 cm/s; in series [4] it was 0.454 10^-6 cm/s. In addition, the Ratio in series [5] came out at 21.7.

Turning to `C[C@]1(C(=O)[C@H](Cc2ccccc2)NC(=O)[C@H](CO)NC(=O)c2cccc(=O)[nH]2)CO1`, the IC50 at 96 h was 24100 nM in [6] and more than 30000 nM in [7].

The molecule `C[C@]1(C(=O)[C@H](CC2=CCCC2)NC(=O)[C@@H]2COCCCCCC(=O)N3C[C@H](F)C[C@H]3C(=O)N2)CO1` displayed an IC50 in series [13] of 137 nM. Further, the t1/2 in series [1] was determined as 8.29 min. The Stability in series [2] was 0.3%. Moreover, the Papp is 9.06 10^-6 cm/s in [3] and 8.03 10^-6 cm/s in series [4]. For the same molecule, the Ratio in [5] came out at 1.13. Further, the IC50 at 96 h in [6] and in series [7] was more than 100000 nM each time. Further, the Activity entry (in the series with HMC3; with ARPE-19; in [9]; in series [10]; in series [11]; in series [12]) was “Non-Toxic” throughout. In series [14], the inhibition entry was “Active”.

As to `CC(C)C[C@H](NC(=O)[C@H](CCc1ccccc1)NC(=O)CN1CCOCC1)C(=O)N[C@@H](Cc1ccccc1)C(=O)N[C@@H](CC(C)C)C(=O)[C@@]1(C)CO1` [CARFILZOMIB], in series [1], the t1/2 was found to be 1.34 min. For the same molecule, the Stability entry in series [2] was “Unstable”. Also, the Papp in series [3] was 5.16 10^-6 cm/s; in series [4], 0.558 10^-6 cm/s. Besides, the Ratio in series [5] was 9.33. In addition, the IC50 at 96 h turned out to be 16 nM in series [6] and 58 nM in series [7].

As for `C[C@]1(C(=O)[C@H](Cc2ccccc2)NC(=O)[C@@H]2COCCCCCC(=O)N3C[C@H](F)C[C@H]3C(=O)N2)CO1`, half-maximal inhibition in series [13] (IC50) was put at 127 nM. Also, in [1], the t1/2 was 13.4 min. Besides, in series [2], the Stability was determined as 4.57%. Moreover, the values for the Papp in [3] and in [4] were 12.6 10^-6 cm/s and 7.52 10^-6 cm/s, respectively. Besides, the Ratio in series [5] was 1.68.

In the case of `C[C@]1(C(=O)[C@H](Cc2ccccc2)NC(=O)[C@@H]2Cc3ccc(cc3)OCCCCCCCC(=O)N3CCC[C@H]3C(=O)N2)CO1`, in series [1], the t1/2 came to 1.35 min. For the same molecule, the Stability entry in series [2] is “Unstable”. Also, the Papp was 3.33 10^-6 cm/s in [3] and 5.91 10^-6 cm/s in series [4]. Also, in [5], the Ratio was 0.56.
